Columns and labels:
[1] = tested on: non-kinase drug target ligands listed in Table 5; assay: Drug target radioligand competitive binding assay, whole panel of Table 5; details: test substance 10 μM, summary of Table 5
[2] = biological target: Transporter, Serotonin (5-Hydroxytryptamine) (SERT) (Homo sapiens (Human), UniProt P31645); assay: Radioligand binding assay No. 274030; details: test substance 10 μM, read-out: Inhibitory rate (%), Transporter, Serotonin (5-Hydroxytryptamine) (SERT)
[3] = biological target: Transporter, Dopamine (DAT) (Homo sapiens (Human), UniProt Q01959); assay: Radioligand binding assay No. 220320; details: test substance 10 μM, read-out: Inhibitory rate (%), Transporter, Dopamine (DAT)
Transporter, Dopamine (DAT), sequence (Q01959 whole entry): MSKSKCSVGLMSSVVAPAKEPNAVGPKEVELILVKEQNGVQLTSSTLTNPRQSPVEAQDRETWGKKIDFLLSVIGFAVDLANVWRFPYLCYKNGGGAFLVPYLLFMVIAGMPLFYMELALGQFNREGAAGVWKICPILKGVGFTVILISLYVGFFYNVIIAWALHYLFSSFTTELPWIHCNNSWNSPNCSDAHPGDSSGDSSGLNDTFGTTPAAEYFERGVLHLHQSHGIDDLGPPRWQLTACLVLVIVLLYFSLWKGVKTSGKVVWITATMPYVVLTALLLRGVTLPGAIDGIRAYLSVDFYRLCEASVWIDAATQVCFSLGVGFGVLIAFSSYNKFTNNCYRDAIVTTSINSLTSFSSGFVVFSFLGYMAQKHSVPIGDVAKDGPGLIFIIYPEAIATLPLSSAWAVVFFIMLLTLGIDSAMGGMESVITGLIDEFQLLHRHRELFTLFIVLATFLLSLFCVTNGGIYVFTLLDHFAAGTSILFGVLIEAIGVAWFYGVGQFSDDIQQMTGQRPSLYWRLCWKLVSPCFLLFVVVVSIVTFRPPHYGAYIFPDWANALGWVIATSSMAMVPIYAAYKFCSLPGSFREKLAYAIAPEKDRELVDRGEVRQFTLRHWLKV

Neuropeptide Y Y1 = Neuropeptide Y Y1 (Homo sapiens (Human), UniProt P25929); assay: Radioligand binding assay No. 257010; details: test substance 10 μM, read-out: Inhibitory rate (%), Neuropeptide Y Y1
Neuropeptide Y Y1, sequence (P25929 whole entry): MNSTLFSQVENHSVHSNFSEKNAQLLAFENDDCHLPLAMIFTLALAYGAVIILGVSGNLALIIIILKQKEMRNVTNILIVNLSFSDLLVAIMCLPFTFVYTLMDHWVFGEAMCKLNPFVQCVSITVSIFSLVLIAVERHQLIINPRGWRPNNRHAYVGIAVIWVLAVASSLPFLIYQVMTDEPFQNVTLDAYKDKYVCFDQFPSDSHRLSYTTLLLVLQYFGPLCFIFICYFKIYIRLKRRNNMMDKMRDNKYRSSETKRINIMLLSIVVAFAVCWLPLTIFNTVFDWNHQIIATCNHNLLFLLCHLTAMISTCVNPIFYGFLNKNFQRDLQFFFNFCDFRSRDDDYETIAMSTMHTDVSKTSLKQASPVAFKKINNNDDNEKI

Opiate δ1 (OP1, DOP) = Opiate δ1 (OP1, DOP) (Homo sapiens (Human), UniProt P41143); assay: Radioligand binding assay No. 260130; details: test substance 10 μM, read-out: Inhibitory rate (%), Opiate δ1 (OP1, DOP)
Opiate δ1 (OP1, DOP), sequence (P41143 whole entry): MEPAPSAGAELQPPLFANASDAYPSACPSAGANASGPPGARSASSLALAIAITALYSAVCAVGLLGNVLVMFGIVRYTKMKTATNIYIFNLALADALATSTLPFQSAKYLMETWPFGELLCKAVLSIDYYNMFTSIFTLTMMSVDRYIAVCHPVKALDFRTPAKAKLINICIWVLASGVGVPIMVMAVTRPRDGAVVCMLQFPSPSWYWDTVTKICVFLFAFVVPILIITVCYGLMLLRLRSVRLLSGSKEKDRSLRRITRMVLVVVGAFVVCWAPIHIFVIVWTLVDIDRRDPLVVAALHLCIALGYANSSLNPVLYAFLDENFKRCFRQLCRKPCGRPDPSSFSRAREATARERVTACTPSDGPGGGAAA

ImidazolineI2, Central = assay: Radioligand binding assay No. 241000; details: test substance 10 μM; rat
Neuropeptide Y Y2 = Neuropeptide Y Y2 (Homo sapiens (Human), UniProt P49146); assay: Radioligand binding assay No. 257110; details: test substance 10 μM, read-out: Inhibitory rate (%), Neuropeptide Y Y2
Neuropeptide Y Y2, sequence (P49146 whole entry): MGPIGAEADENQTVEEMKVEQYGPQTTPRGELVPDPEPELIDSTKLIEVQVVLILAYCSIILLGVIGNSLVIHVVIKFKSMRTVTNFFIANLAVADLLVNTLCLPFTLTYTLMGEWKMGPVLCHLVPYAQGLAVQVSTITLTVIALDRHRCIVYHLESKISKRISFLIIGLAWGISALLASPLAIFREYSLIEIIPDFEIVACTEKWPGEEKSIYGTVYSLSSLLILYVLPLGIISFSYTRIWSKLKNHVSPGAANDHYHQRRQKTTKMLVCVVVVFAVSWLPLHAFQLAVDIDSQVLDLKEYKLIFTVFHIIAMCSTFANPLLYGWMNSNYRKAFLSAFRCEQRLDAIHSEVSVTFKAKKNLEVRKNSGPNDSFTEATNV

Adrenergic β1 = Adrenergic β1 (Homo sapiens (Human), UniProt P08588); assay: Radioligand binding assay No. 204010; details: test substance 10 μM, read-out: Inhibitory rate (%), Adrenergic β1
Adrenergic β1, sequence (P08588 whole entry): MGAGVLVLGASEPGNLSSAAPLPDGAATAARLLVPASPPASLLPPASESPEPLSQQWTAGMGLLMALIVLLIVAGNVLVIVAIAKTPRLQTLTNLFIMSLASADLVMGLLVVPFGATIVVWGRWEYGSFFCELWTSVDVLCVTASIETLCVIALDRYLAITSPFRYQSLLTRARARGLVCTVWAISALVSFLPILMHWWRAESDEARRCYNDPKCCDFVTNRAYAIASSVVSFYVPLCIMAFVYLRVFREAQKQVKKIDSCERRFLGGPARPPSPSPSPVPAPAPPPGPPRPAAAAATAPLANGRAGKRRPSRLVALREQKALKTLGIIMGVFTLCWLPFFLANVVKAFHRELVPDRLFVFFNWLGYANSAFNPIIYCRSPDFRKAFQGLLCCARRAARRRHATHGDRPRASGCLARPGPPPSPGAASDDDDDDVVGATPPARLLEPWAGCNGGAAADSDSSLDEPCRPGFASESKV

Histamine H3 = Histamine H3 (Homo sapiens (Human), UniProt Q9Y5N1); assay: Radioligand binding assay No. 239820; details: test substance 10 μM, read-out: Inhibitory rate (%), Histamine H3
Histamine H3, sequence (Q9Y5N1 whole entry): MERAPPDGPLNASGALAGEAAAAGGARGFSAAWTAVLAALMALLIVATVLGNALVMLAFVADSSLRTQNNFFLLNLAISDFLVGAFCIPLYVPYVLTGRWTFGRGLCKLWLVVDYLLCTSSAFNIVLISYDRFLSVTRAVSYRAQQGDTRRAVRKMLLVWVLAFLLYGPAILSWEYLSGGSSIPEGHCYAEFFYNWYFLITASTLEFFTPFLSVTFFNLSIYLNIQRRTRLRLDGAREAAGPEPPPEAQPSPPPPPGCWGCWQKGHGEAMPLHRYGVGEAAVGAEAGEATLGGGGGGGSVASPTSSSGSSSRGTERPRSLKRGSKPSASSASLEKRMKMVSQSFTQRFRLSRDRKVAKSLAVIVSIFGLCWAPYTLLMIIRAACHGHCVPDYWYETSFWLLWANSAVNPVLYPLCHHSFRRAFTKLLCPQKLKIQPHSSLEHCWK

Rolipram = assay: Radioligand binding assay No. 270000; details: test substance 10 μM; rat
[4] = biological target: Transporter, Norepinephrine (NET) (Homo sapiens (Human), UniProt P23975); assay: Radioligand binding assay No. 204410; details: test substance 10 μM, read-out: Inhibitory rate (%), Transporter, Norepinephrine (NET)
Transporter, Norepinephrine (NET), sequence (P23975 whole entry): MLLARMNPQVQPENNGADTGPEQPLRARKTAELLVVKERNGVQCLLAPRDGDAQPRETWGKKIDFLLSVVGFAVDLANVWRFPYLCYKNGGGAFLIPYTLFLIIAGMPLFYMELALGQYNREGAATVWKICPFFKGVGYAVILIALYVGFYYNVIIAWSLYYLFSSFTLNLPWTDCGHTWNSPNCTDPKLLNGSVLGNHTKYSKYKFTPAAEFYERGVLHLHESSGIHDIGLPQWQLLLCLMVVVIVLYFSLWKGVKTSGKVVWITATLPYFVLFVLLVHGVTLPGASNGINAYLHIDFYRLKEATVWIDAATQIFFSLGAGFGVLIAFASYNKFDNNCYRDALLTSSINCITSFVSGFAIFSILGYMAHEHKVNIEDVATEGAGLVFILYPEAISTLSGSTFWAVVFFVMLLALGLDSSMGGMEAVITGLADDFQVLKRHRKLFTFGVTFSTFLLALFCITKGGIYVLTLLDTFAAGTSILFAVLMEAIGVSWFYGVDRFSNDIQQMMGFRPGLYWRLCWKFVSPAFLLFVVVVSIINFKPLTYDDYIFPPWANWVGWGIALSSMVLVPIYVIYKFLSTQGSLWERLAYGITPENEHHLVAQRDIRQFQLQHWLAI

Sodium Channel, Site2 = assay: Radioligand binding assay No. 279510; details: test substance 10 μM; rat
Purinergic P2X = assay: Radioligand binding assay No. 268700; details: test substance 10 μM; rabbit
Prostanoid EP4 = Prostanoid EP4 (Homo sapiens (Human), UniProt P35408); assay: Radioligand binding assay No. 268420; details: test substance 10 μM, read-out: Inhibitory rate (%), Prostanoid EP4
Endothelin ETB = Endothelin ETB (Homo sapiens (Human), UniProt P24530); assay: Radioligand binding assay No. 224110; details: test substance 10 μM, read-out: Inhibitory rate (%), Endothelin ETB
Endothelin ETB, sequence (P24530 27-442): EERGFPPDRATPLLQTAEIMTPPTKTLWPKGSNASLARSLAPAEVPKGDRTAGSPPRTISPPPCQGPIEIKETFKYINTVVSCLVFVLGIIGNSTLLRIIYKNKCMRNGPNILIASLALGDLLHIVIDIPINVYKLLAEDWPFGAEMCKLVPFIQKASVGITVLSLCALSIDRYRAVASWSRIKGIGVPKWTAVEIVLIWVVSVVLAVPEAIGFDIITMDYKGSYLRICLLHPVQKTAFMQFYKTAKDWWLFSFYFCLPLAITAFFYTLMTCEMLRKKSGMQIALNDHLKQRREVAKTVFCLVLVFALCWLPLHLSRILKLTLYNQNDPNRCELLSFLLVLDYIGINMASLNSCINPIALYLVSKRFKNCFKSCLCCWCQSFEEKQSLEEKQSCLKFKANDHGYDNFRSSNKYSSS

Dopamine D3 = Dopamine D3 (Homo sapiens (Human), UniProt P35462); assay: Radioligand binding assay No. 219800; details: test substance 10 μM, read-out: Inhibitory rate (%), Dopamine D3
Dopamine D3, sequence (P35462 whole entry): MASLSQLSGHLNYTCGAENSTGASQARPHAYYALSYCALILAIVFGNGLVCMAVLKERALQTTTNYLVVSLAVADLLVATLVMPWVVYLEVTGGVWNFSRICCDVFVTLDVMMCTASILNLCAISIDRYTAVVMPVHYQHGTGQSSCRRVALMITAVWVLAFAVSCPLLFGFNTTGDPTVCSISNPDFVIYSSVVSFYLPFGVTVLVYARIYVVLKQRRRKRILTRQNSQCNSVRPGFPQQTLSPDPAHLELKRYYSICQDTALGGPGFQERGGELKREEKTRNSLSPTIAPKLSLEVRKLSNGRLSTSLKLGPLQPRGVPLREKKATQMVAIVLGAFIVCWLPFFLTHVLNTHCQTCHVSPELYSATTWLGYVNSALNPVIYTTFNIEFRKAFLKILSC

A549 = assay: In vitro cytological inhibitory activity (XTT); type: cell-based; details: Homo sapiens, 72 hrs
Description: A549: Human lung cancer cell line;
1. Preparation of agents and compounds:
• 1.1 Preparation of phosphoric acid buffering solution (PBS): 8 g NaCl, 0.2 g KCl, 1.44 g Na2HPO4 and 0.24 g KH2PO4 were weighed and added to 800 mL ultrapure water. The mixture was adjusted to pH=7.4, and ultrapure water was added to the metered volume of IL. Then the autoclaving was conducted for 20 mins. • 1.2 Preparation of XTT detection working solution: 100 mg (2,3-Bis-(2-methoxy-4-nitro-5-sulfophenyl)-2H-tetrazolium-5-carboxanilide); 2,3-bis(2-methoxy-4-nitro-5-sulfophenyl)-5-[(phenylamino)carbonyl]-2H-tetrazolium hydroxide (XTT) powder was weighed, and dissolved under protection from light 300 mL of phenol red-free and serum-free RPMI1640 culture, which had been warmed up to 50° C. The resulting mixture was filtered, packaged and used immediately or in one week. The complete process was conducted under protection from light. • 1.3 Preparation of the test compound • Preparation of the stock solution of the test compound: The test compound powder was dissolved in DMSO in a concentration of 10 mM. • Preparation of the gradiently diluted solution of the test compound: 10 mM of the stock solution of the test compound was successively and gradiently diluted with DMSO by 4 folds for 10 concentrations. […]

Transporter, Serotonin (5-Hydroxytryptamine) (SERT), sequence (P31645 whole entry): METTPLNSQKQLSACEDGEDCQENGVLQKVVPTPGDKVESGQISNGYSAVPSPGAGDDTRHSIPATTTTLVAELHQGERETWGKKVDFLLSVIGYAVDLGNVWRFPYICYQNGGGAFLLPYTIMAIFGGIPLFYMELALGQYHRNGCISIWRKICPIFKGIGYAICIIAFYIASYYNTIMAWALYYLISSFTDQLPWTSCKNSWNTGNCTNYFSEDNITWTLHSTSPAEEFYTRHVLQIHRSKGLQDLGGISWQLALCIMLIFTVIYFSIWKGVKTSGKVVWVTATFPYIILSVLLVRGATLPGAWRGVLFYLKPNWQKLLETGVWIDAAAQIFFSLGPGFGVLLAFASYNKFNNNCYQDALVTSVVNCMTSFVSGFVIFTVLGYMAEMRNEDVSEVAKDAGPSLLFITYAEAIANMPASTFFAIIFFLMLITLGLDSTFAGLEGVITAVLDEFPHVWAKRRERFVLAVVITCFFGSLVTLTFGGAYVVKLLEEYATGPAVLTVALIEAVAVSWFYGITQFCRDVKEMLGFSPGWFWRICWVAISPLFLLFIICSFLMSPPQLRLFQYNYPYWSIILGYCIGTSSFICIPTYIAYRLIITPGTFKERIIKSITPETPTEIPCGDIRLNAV

Row | IC50 (A549) [nM] | SMILES | inhibitory rates on the listed non-kinase drug target ligands [1] | inhibition at 10 µM [2] [%] | inhibition at 10 µM [3] [%] | inhibition at 10 µM (Neuropeptide Y Y1) [%] | inhibition at 10 µM (Opiate δ1 (OP1, DOP)) [%] | Inhibitory rate (%), ImidazolineI2, Central (ImidazolineI2, Central) [%] | inhibition at 10 µM (Neuropeptide Y Y2) [%] | inhibition at 10 µM (Adrenergic β1) [%] | inhibition at 10 µM (Histamine H3) [%] | Inhibitory rate (%), Rolipram (Rolipram) [%] | inhibition at 10 µM [4] [%] | Inhibitory rate (%), Sodium Channel, Site2 (Sodium Channel, Site2) [%] | Inhibitory rate (%), Purinergic P2X (Purinergic P2X) [%] | inhibition at 10 µM (Prostanoid EP4) [%] | inhibition at 10 µM (Endothelin ETB) [%] | inhibition at 10 µM (Dopamine D3) [%]
1 | – | Nc1ccc(-c2ccc3ncc4c(=O)[nH]c(=O)n(-c5cccc(C(F)(F)F)c5)c4c3n2)cn1 [Compound 5, 9-(6-aminopyridin-3-yl)-1-(3-(trifluoromethyl)phenyl)pyrimido[5,4-c][1,5]naphthyridine-2,4(1H,3H)-dione] | less than 50% | 6 | 1 | 3 | 4 | 0 | 10 | 0 | 16 | 20 | -5 | 7 | 9 | 19 | 7 | 15
2 | 107 | O=c1[nH]c(=O)n(-c2cccc(C(F)(F)F)c2)c2c1cnc1ccc(-c3cnc4[nH]ccc4c3)nc12 [Compound 30, 9-(1H-pyrrolo[2,3-b]pyridin-5-yl)-1-(3-(trifluoromethyl)phenyl)pyrimido[5,4-c][1,5]naphthyridine-2,4(1H,3H)-dione] | – | – | – | – | – | – | – | – | – | – | – | – | – | – | – | –
